In a melting point compilation (Tetko et al.; mined from patent text by program, amines drawn as free bases though some values may be those of a salt):

Row | Structure (SMILES) | melting point
1 | COC(=O)c1c[nH]c(C(=O)c2cc(OC)cc(OC)c2)c1 | 115 to 120 °C
2 | CC(C)(C)C(=O)Nc1ncc(Cl)cc1C=O | 169 to 171 °C
3 | N#CCN1CCN(c2cccc(Cl)c2Cl)CC1 | 89 to 92 °C
4 | Cn1cc(CO)c(=O)c2ccc(F)cc21 | 219 to 222 °C
5 | COC(=O)c1ccc(-c2csc(-c3ccc4c(c3)C(C)(C)CCC4(C)C)c2)cc1 | 108 to 110 °C
6 | O=C(Cl)N1CCNC1=O | 150 °C
7 | CSC1=Nc2c(C)ccnc2N(C2CC2)c2ncccc21 | 173 to 177 °C
8 | CCc1cccc2c3c([nH]c12)C(CC)(CC(=O)OC)OCC3NC=O (stereo unspecified) | 154 to 156 °C
9 | Brc1ccc2c(c1)C1(OCCCO1)C1=NCCCN12 | 145 to 149 °C
10 | CC(=Cc1ccc(F)cc1F)C(=O)O | 126 to 128 °C
11 | CCCCCCCc1ccc([C@H]2CC[C@H](O)CC2)cc1 | 80.2 to 82.5 °C
12 | COc1cc(C=C2OC(C)=CC2=O)ccc1O | 168 to 170 °C
13 | O=C(O)/C=C1\CCc2c(Cl)cc(F)cc21 | 229 to 230 °C
14 | Cc1cccc(NC(=O)NC2N=C(c3ccccc3F)c3ccccc3N(Cc3nccc4c3CCCC4)C2=O)c1 (racemic) | 207 to 210 °C
15 | O=[N+]([O-])c1ccc(CCCCCCCCCCCCCCOCCCCCCCCCCCCCCc2ccc([N+](=O)[O-])cc2)cc1 | 57 to 60 °C
16 | CC(=O)Nc1cccc(-c2ccnc3c(C#N)cnn23)c1 | 252 to 254 °C
17 | Cc1cc(OCC(F)(F)F)c([N+](=O)[O-])c(OCC(F)(F)F)n1 | 72.8 to 73.2 °C
18 | CCc1nn(C2CCCC2)c2c1CCn1c-2nnc1C(C)(C)C | 150 to 151 °C
19 | N#Cc1cnn2c(C(F)(F)F)cc(-c3ccc(Cl)c(Cl)c3)nc12 | 206 °C
20 | CC(C)(C)OC(=O)Cn1c2ccccc2c2c(N3CCCC3)nc(N3CCCC3)nc21 | 131 to 133 °C
21 | CN1CCCC1=NC(=O)Nc1ccc(Br)cc1 | 134 to 136 °C
22 | CCCN1NC(c2ccc(OC)cc2)C2=C1C(=Cc1ccc(OC)cc1)CSC2 (stereo unspecified) | 132 to 134 °C
23 | Cn1c(C(F)(F)F)ccc(-c2c(F)cc(Cl)c3oc(C(=O)O)cc23)c1=O | 233 to 235 °C
24 | COc1cccc(C2(C(C)(C)O)CCN(C)CC2)c1 | 100 °C
25 | COc1c(F)cc2c(=O)c(C(=O)O)cn(-c3cc(N)c(F)cc3F)c2c1C | > 280 °C
26 | CC(=O)Oc1ccc(C=O)cc1Cl | 33 to 35 °C
27 | CCCCCCCCCCCCCCCCOCC(O)CN1CCC(C#N)(c2ccccc2)CC1 (stereo unspecified) | 69 to 70 °C
28 | CCCCCCCCCCCCCCOc1ccc(CBr)cc1 | 40 to 41 °C
29 | COC(C)(C)C(C#N)=NOCc1coc(-c2ccc(F)cc2)n1 | 75 to 77 °C

Next, values leading:

Row | melting point | Structure (SMILES)
30 | 109 to 112 °C | CN(C)Cc1ccc(C(=O)Nc2nc(-c3ccco3)c(C(=O)C3CCOCC3)s2)cc1
31 | 147 to 149 °C | ON=Cc1cn(C(c2ccccc2)(c2ccccc2)c2ccccc2)c(F)n1
32 | 230 to 231 °C | CC(Oc1ncn(-c2cc(Cl)cc(Cl)c2)n1)C(=O)O (stereo unspecified)
33 | 192 to 193 °C | COc1ccc2nc3ccc(OC)cc3c(C(=O)O)c2c1
34 | 143 to 144 °C | O=C(NCCCCN1CCC(c2ccccc2)CC1)c1ccc2ccccc2c1
35 | 254 to 255 °C | CC(=O)NS(=O)(=O)c1ccc(-n2sc3ccccc3c2=O)cc1
36 | 151 to 152 °C | O=C(O)CCCCOc1ccc2oc3ccccc3c(=O)c2c1
37 | 173 to 176 °C | Cc1ccc(S(=O)(=O)NC(=O)OCCc2ccc(-n3c(C(C)C)nc4cc(C(=O)N(C)C)c(Cl)cc43)cc2)cc1
38 | 109 to 113 °C | O=C1CCCc2cc(OCCOc3ccccc3)ccc21
39 | 118 to 120 °C | COc1ccc(S(=O)(=O)C(CC(=O)NO)Cc2ccccc2)cc1 (stereo unspecified)
40 | 115 to 117 °C | CCN(CC)CCNC(=O)c1c(O)c2cnc(-c3ccccc3)nc2n(CCOC)c1=O
41 | 106 to 110 °C | O=C(c1cc(C2CCCCC2)ccn1)N(O)Cc1ccccc1
42 | 117 to 118 °C | COc1cc(CO)ccc1OCc1coc(-c2ccco2)n1
43 | 163 °C | FC(F)(F)c1ccc(-c2cc(C(F)(F)F)n3ncc(-c4cccnc4)c3n2)cc1
44 | 106 to 109 °C | O=C(OC(Cn1ccnc1)CS(=O)(=O)c1ccccc1)c1ccc(Cl)cc1Cl (stereo unspecified)
45 | 253 to 255 °C | CS(=O)(=O)c1cccc(NC(=O)c2cnn3c(Cl)cc(-c4ccc(Cl)cc4)nc23)c1
46 | 198 to 200 °C | C[N+]1([O-])CC(CO)(c2ccccn2)C(=O)c2ccccc21 (stereo unspecified)
47 | 179 to 184 °C | O=C(N[C@@H](Cc1ccccc1)[C@@H](O)[C@H](O)[C@H](Cc1ccccc1)NC(=O)c1ccccn1)c1ccccn1
48 | 225 to 228 °C | COc1cc2c(Nc3ccc(Sc4ccccn4)c(Cl)c3)c(C#N)cnc2cc1F
49 | > 200 °C | O=c1[nH]c2c(n(O)c1=O)C1=C(CCC(n3ccc(CN4CCN(Cc5ccccc5)CC4)c3)=C1)CC2
50 | 145 to 146 °C | CCN1C(=O)c2ccc(C(F)(F)F)cc2S(=O)(=O)c2ccccc21

Row | melting point | Structure (SMILES)
51 | 105 to 108 °C | NC1=NN(/C=N/O)C(=O)C1Cc1ccccc1 (stereo unspecified)
52 | 96 to 99 °C | CS(=O)(=O)N(CCc1ccc(Cl)cc1)Cc1ccncc1
53 | 242 to 244 °C | COC(=O)c1[nH]cc(C(=O)NCc2ccc(F)cc2)c(=O)c1OC
54 | 125 to 127 °C | COC(=O)CCCCCNC(=O)/C=C/C=C/c1ccccc1
55 | 113 °C | CCC1CC(=O)N(Cc2cccc(NS(C)(=O)=O)c2)N=C1c1ccc(OC)c(OC2CCCC2)c1 (stereo unspecified)
56 | 125 to 127 °C | COC(=O)C[C@H]1C[C@H](C=Cc2c(-c3ccc(F)cc3)c(-c3ccc(F)cc3)c(C(=O)OCc3ccccc3)n2C(C)C)OC(C)(C)O1
57 | 196 to 201 °C | CCOC(=O)c1cn(C2CN(C(c3ccccc3)c3ccccc3)C2)c2cc(F)c(F)cc2c1=O
58 | 103 °C | O=S(=O)(c1ccccc1)c1ncc(Br)cn1
59 | 94 to 95 °C | CCSc1cn(C)cc(-c2ccccc2)c1=O
60 | 123 to 125 °C | COCCN(CCOC)c1nc2cc(-c3ccc(Cl)cc3)nnc2c2ccccc12
61 | 60 to 62 °C | CCOC(=O)c1ccccc1COc1ccc(C=O)cc1
62 | 158 °C | CC(=O)c1nn(-c2c(Cl)cc(C(F)(F)F)cc2Cl)c(N)c1S(=O)(=O)c1ccc(Cl)cc1
63 | 165 to 166 °C | Cc1oc(-c2ccccc2)nc1COc1ccc(Cn2cc(C(=O)O)c(-c3ccccc3)n2)cc1
64 | 213 to 214 °C | COc1ccc(/C=C/c2ccc3c(=O)n(-c4ccccn4)ncc3c2)cc1
65 | 56 to 58 °C | CCOC(=O)CCC(=O)[C@H](Cc1ccccc1)NC(=O)OC(C)(C)C
66 | 69 to 71 °C | CON=C(C#N)c1ccccc1COc1ccc(Cl)cc1
67 | 154 to 155 °C | C#CCOc1cc(C(=O)O)cc(S(N)(=O)=O)c1-c1ccccc1
68 | 121 to 123 °C | Cn1c(CCNC(=O)OCc2ccccc2)nc(-c2ccncn2)cc1=O
69 | 185 to 186 °C | COc1cc(C(C)C)c(NC(=O)CN2CCN(CCSc3nc4cccc(C(C)=O)c4o3)CC2)c(C(C)C)c1
70 | 135 °C | CCOC(=O)C(C(=O)CCCC(C)C)C1c2ccccc2C(=O)N1c1ccc2ccc(Cl)nc2n1 (stereo unspecified)
71 | 202 to 204 °C | CC(=O)NC[C@H]1CN(c2cc(F)c(N3CCC(n4nnnc4-c4ccncc4)CC3)c(F)c2)C(=O)O1
